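Dose response: 5 concentrations. Exposure: 48 h. Format: 96-well plates. Endpoint: linear interpolation; highest concentration if not reached. GI50 is the concentration that inhibits growth by half.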 Calls of active or inactive are those of the source. No stated cut-off is given here; in the data, active = GI50 up to about 1.1 µM and inactive = higher.
Legend:
Assay in all cases: growth of human tumour cells (NCI), 48 h
[1] = tested on: HOP-18
[2] = tested on: KM12
[3] = tested on: LXFL 529
[4] = tested on: HL-60
[5] = tested on: UACC-257
[6] = tested on: NCI-H522
[7] = tested on: UACC-62
[8] = tested on: SW-620
[9] = tested on: RPMI-8226
[10] = tested on: OVCAR-3
[11] = tested on: 786-0
[12] = tested on: UO-31
[13] = tested on: ACHN
[14] = tested on: DLD-1
[15] = tested on: NCI-H226
[16] = tested on: A498
[17] = tested on: HCC 2998
[18] = tested on: SNB-19
[19] = tested on: K562
[20] = tested on: NCI-H460
[21] = tested on: DMS-114
[22] = tested on: SR
[23] = tested on: U-251
[24] = tested on: SK-MEL-28
[25] = tested on: SNB-75
[26] = tested on: M19-MEL
[27] = tested on: SN12C
[28] = tested on: SK-MEL-5
[29] = tested on: OVCAR-8
[30] = tested on: DMS-273
[31] = tested on: SF-539
[32] = tested on: OVCAR-4
[33] = tested on: COLO 205
[34] = tested on: HCT-116
[35] = tested on: A549
[36] = tested on: TK-10
[37] = tested on: RXF 393
[38] = tested on: SK-MEL-2
[39] = tested on: HCT-15
[40] = tested on: Malme-3M
[41] = tested on: CAKI-1
[42] = tested on: SF-268
[43] = tested on: SK-OV-3
[44] = tested on: SNB-78
[45] = tested on: IGROV-1
[46] = tested on: KM-20L2
[47] = tested on: CCRF-CEM
[48] = tested on: MOLT-4
[49] = tested on: HOP-62
[50] = tested on: M14
[51] = tested on: SF-295
[52] = tested on: NCI-H23
[53] = tested on: HT-29
[54] = tested on: XF498
[55] = tested on: EKVX
[56] = tested on: HOP-92
[57] = tested on: LOX IMVI

C=CC1(NS(=O)(=O)c2ccc(C)cc2)CCC(C(C)(C)C)CC1 (stereo not drawn)
GI50 [1]: 37.5 µM (inactive)
GI50 [2]: > 100 µM (inactive)
GI50 [3]: 99.5 µM (inactive)
GI50 [4]: 70.1 µM (inactive)
GI50 [5]: > 100 µM (inactive)
GI50 [6]: 32.7 µM (inactive)
GI50 [7]: 28.5 µM (inactive)
GI50 [8]: > 100 µM (inactive)
GI50 [9]: 17.5 µM (inactive)
GI50 [10]: 21.6 µM (inactive)
GI50 [11]: 46.8 µM (inactive)
GI50 [12]: > 100 µM (inactive)
GI50 [13]: 65.3 µM (inactive)
GI50 [14]: > 100 µM (inactive)
GI50 [15]: > 100 µM (inactive)
GI50 [16]: > 100 µM (inactive)
GI50 [17]: > 100 µM (inactive)
GI50 [18]: 36.6 µM (inactive)
GI50 [19]: > 100 µM (inactive)
GI50 [20]: > 100 µM (inactive)
GI50 [21]: 27 µM (inactive)
GI50 [22]: 56 µM (inactive)
GI50 [23]: 35.6 µM (inactive)
GI50 [24]: > 100 µM (inactive)
GI50 [25]: 17.8 µM (inactive)
GI50 [26]: > 100 µM (inactive)
GI50 [27]: > 100 µM (inactive)
GI50 [28]: > 100 µM (inactive)
GI50 [29]: 52.8 µM (inactive)
GI50 [30]: 43.5 µM (inactive)
GI50 [31]: 64 µM (inactive)
GI50 [32]: 91.6 µM (inactive)
GI50 [33]: > 100 µM (inactive)
GI50 [34]: > 100 µM (inactive)
GI50 [35]: 80.9 µM (inactive)
GI50 [36]: 88.5 µM (inactive)
GI50 [37]: 8.97 µM (inactive)
GI50 [38]: 60.7 µM (inactive)
GI50 [39]: > 100 µM
GI50 [40]: 82.2 µM (inactive)
GI50 [41]: > 100 µM (inactive)
GI50 [42]: 27 µM (inactive)
GI50 [43]: 34.4 µM (inactive)
GI50 [44]: 30.7 µM (inactive)
GI50 [45]: 76.2 µM (inactive)
GI50 [46]: > 100 µM (inactive)
GI50 [47]: > 100 µM (inactive)
GI50 [48]: > 100 µM (inactive)
GI50 [49]: 57.7 µM (inactive)
GI50 [50]: 98.6 µM (inactive)

CC(Oc1ccc2c(-c3ccccc3)cc(=O)oc2c1)C(=O)O (stereo not drawn)
GI50 [1]: > 100 µM (inactive)
GI50 [2]: > 100 µM (inactive)
GI50 [3]: > 100 µM (inactive)
GI50 [51]: > 100 µM (inactive)
GI50 [4]: > 100 µM (inactive)
GI50 [52]: > 100 µM (inactive)
GI50 [5]: > 100 µM (inactive)
GI50 [53]: > 100 µM (inactive)
GI50 [6]: > 100 µM (inactive)
GI50 [7]: > 100 µM (inactive)
GI50 [8]: > 100 µM (inactive)
GI50 [10]: > 100 µM (inactive)
GI50 [11]: > 100 µM (inactive)
GI50 [12]: > 100 µM (inactive)
GI50 [13]: > 100 µM (inactive)
GI50 [54]: > 100 µM (inactive)
GI50 [14]: > 100 µM (inactive)
GI50 [15]: > 100 µM (inactive)
GI50 [16]: > 100 µM (inactive)
GI50 [17]: > 100 µM (inactive)
GI50 [18]: > 100 µM (inactive)
GI50 [19]: > 100 µM (inactive)
GI50 [55]: > 100 µM (inactive)
GI50 [20]: > 100 µM (inactive)
GI50 [21]: > 100 µM (inactive)
GI50 [22]: > 100 µM (inactive)
GI50 [56]: > 100 µM (inactive)
GI50 [23]: > 100 µM (inactive)
GI50 [24]: > 100 µM (inactive)
GI50 [25]: > 100 µM (inactive)
GI50 [26]: > 100 µM (inactive)
GI50 [27]: > 100 µM (inactive)
GI50 [28]: > 100 µM (inactive)
GI50 [57]: > 100 µM (inactive)
GI50 [29]: > 100 µM (inactive)
GI50 [31]: > 100 µM (inactive)
GI50 [32]: > 100 µM (inactive)
GI50 [33]: > 100 µM (inactive)
GI50 [34]: > 100 µM (inactive)
GI50 [35]: > 100 µM (inactive)
GI50 [36]: > 100 µM (inactive)
GI50 [37]: > 100 µM (inactive)
GI50 [40]: > 100 µM (inactive)
GI50 [41]: > 100 µM (inactive)
GI50 [42]: > 100 µM (inactive)
GI50 [43]: > 100 µM (inactive)
GI50 [44]: > 100 µM (inactive)
GI50 [45]: > 100 µM (inactive)
GI50 [46]: > 100 µM (inactive)
GI50 [47]: > 100 µM (inactive)
GI50 [48]: > 100 µM (inactive)
GI50 [49]: > 100 µM (inactive)
GI50 [50]: > 100 µM (inactive)
